{
  "source": "paper PMC10518421",
  "about": "“Zebrafish as model system for the biological characterization of CK1 inhibitors” (Frontiers in Pharmacology, 2023)",
  "key": {"CK1δ (TV1)": {"target": "CK1δ (TV1) (Homo sapiens, UniProt P48730)", "sequence (P48730 whole entry)": "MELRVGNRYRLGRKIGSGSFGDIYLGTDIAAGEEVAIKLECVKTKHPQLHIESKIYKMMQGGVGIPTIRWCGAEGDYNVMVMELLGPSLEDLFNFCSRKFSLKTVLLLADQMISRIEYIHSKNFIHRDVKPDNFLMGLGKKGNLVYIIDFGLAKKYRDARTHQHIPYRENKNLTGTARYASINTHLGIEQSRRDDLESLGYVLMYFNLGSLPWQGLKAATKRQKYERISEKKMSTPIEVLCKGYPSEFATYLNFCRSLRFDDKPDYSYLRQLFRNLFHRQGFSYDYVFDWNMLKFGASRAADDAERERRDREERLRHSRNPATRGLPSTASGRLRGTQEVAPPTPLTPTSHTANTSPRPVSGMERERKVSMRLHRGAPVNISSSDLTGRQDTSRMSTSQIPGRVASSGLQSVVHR", "assay": "initial IC50 determination in in vitro kinase assays, prior to standardization", "assay_type": "biochemical", "settings": "not published", "description": "The SMIs used in this study (summarized in Supplementary Table S2) were selected based on their inhibitory capacity toward CK1δ in vitro, whereby a broad range of inhibitors with varying efficiency were included. The determination of IC50-values was conducted prior to the standardization workflow establishment. Zebrafish embryos treated with 20 µM of the respective compound were phenotypically analyzed.\nSupplementary Table 6: List of the inhibitors that were selected for the in vivo screening of zebrafish embryonic development. The compounds were selected based on their ability to inhibit CK1δ in in vitro kinase assays. The initial IC50-values were determined prior to the establishment of the standardized in vitro kinase assay protocol. The Supplementary Table summarizes, whether the zebrafish embryos presented an abnormal phenotype upon inhibitor treatment. The inhibitors were added to the zebrafish medium in a concentration of 20 µM."}},
  "note": "pIC50: −log10 of the molar value. “Also recorded” adds a separate entry of the source.",
  "data": [
    {"smiles": "COc1ccc(-n2c(SCC(=O)Nc3nc4ccc(C(F)(F)F)cc4s3)nccc2=O)cc1", "note": "[G2-5, 2-((3-(4-Methoxyphenyl)-4-oxo-3,4-dihydropyrimidin-2-yl)thio)-N-(6-(trifluormethyl)benzo[d]thiazol-2-yl)acetamid]", "values": [
      {"measurement": "pIC50", "setting": "CK1δ (TV1)", "value": 6.08},
      {"measurement": "Phenotypic changes (with severity) after treatment of zebrafish embryos with 20 µM inhibitor", "setting": "zebrafish embryos; 20 µM in medium, from 24 hpf", "value": "No"},
      {"measurement": "phenotype of treated zebrafish embryos", "setting": "zebrafish embryos; 20 µM, 24 to 72 hpf (48 h)", "value": "no effect on zebrafish development or heart function; also recorded: did not show a phenotypic effect"}
    ]}
  ]
}
